Experimental data from article PMC5562305, “Impact of novel palmitoylated prolactin-releasing peptide analogs on metabolic changes in mice with diet-induced obesity” (PLoS ONE, 2017).
Starred links: 1 amine or outer side, 2 acyl side, 3 side chain; linkers in the order of their positions; H or OH if unused. Residues, ends and D or L forms follow the SMILES beside them. Groups on a side chain read outwards from the residue. *: point of attachment. γGlu = O=C(O)[C@H](CCC(=O)[*:2])N[*:1]; Palmitoyl = CCCCCCCCCCCCCCCC(=O)*

System: urinary metabolites
Assay: NMR-based metabolomics of urine of DIO mice
Format: in vivo, C57BL/6 mice
Design: key to DMA, Mean / DMG, Mean / MA, Mean / TMA, Mean / acetate, Mean / allantoin, Mean / carnitine, Mean / choline, Mean / cis-aconitate, Mean / creatine+creatinine, Mean / creatine, Mean / creatinine, Mean / ethanolamine, Mean / formate, Mean / galactose, Mean / glucose, Mean / glycine, Mean / lactate, Mean / succinate, Mean / vinylacetylglycine, Mean: TSA-normalized intensity of the metabolite's representative NMR signal
Settings: urine NMR signal, DIO mice
Method: Urine samples for NMR-based metabolomics were collected prior to the start of the interventions and at the end of the experiment. For overnight urine collection (from 5 pm to 8 am), the mice were housed in individual metabolic cages (Tecniplast, Buguggiate, Italy) without access to food. Samples were collected with the addition of NaN3 and stored at -80°C until NMR analysis.
The urine samples were thawed at room temperature and centrifuged at 13 684 x g for 5 min prior to the NMR experiments. A 200-μl aliquot of supernatant was diluted with 340 μl of H2O mixed with 60 μl of phosphate buffer (1.5 M KH2PO4 in D2O containing 2 mM NaN3 and 0.1% trimethylsilyl propionic acid (TSP), pH 7.4) and transferred to a 5-mm NMR tube. The NMR data were acquired with a 600 MHz Bruker Avance III spectrometer (Bruker BioSpin, Rheinstetten, Germany) equipped with a 5-mm TCI cryogenic probe head. All of the experiments were performed at 300 K. Automatic tuning, matching, shimming and adjusting of the 90° pulse length were performed for each sample.
As mouse urine naturally contains urinary proteins, the NMR spectra were acquired using a Carr-Purcell-Meiboom-Gill (CPMG) pulse sequence with water presaturation (Bruker pulse sequence cpmgpr1d) to eliminate the strong protein background. […] For better metabolite identification, a short J-resolved experiment with presaturation (NS = 2, SW = 16 ppm, TD = 8k, number of increments = 40, SW = 78.125 Hz in the indirect dimension, and relaxation delay = 2 s) was executed for all samples. Additional two-dimensional ^1H-^1H correlation spectroscopy (COSY) and ^1H-^13C heteronuclear multiple-quantum correlation (HMQC) experiments (Bruker pulse sequences cosygpprqf and hmqcphpr) were performed for selected samples.
The acquired data were processed using Topspin 3.2 software (Bruker BioSpin, Rheinstetten, Germany). Line broadening of 0.3 Hz was applied on free induction decays (FIDs) prior to Fourier transformation. The spectra were automatically phased, baseline corrected and referenced to the signal of TSP (0.00 ppm).
The assignment of individual metabolites was achieved by comparing the proton spectra with the spectra of pure metabolites using Chenomx NMR Suite 7.6 (Chenomx Inc., Edmonton, AB, Canada), the HMDB database and previously published metabolomic data. The identification of metabolites was supported through J-resolved and COSY experiments and, if possible, confirmed using carbon chemical shifts extracted from the HMQC spectra.
For quantitation of individual metabolites, the CPMG spectra were uniformly binned in the range of 0.10–10.00 ppm to 0.01-ppm intervals using AMIX software (Bruker BioSpin, Rheinstetten, Germany). This procedure reduced the dimensionality of the data, eliminated chemical shift variations and thus simplified the reproducible automatic quantification. Regions corresponding to water (4.60–4.90 ppm) and urea (5.60–6.00 ppm) were removed prior to analysis. As the dilutions of the original urine samples differed (due to the differences in water intake during urine collection), all of the spectra were normalized to the total spectral area (TSA). For each identified metabolite, one representative signal was chosen and then quantified as the sum of appropriate adjacent 0.01-ppm bins to cover the whole signal width. The metabolite concentration was expressed as the TSA-normalized intensity of the respective signal. For selection of an appropriate statistical method (parametric or non-parametric) the Lilliefors test of normality was performed. […] Metabolite alterations with a P < 0.05 were considered statistically significant. Statistical analysis was performed using Matlab software (“MATLAB version 8.6 (R2015b). Natick, Massachusetts: The MathWorks Inc., 2015.,” n.d.). […]

## CCCCCCCCCCCCCCCC(=O)N[C@@H](CCC(=O)NCCCC[C@H](NC(=O)[C@@H](NC(=O)[C@H](CCC(=O)O)NC(=O)[C@H](CCSC)NC(=O)[C@H](CO)NC(=O)[C@H](Cc1c[nH]cn1)NC(=O)[C@H](CCCNC(=N)N)NC(=O)[C@H](Cc1c[nH]cn1)NC(=O)[C@@H](NC(=O)[C@H](CCCNC(=N)N)NC(=O)[C@@H](N)CO)[C@@H](C)O)[C@@H](C)CC)C(=O)N[C@H](C(=O)N1CCC[C@H]1C(=O)N[C@@H](CC(=O)O)C(=O)N[C@H](C(=O)N[C@@H](CC(N)=O)C(=O)N1CCC[C@H]1C(=O)N[C@@H](C)C(=O)N[C@@H](Cc1c[nH]c2ccccc12)C(=O)N[C@@H](Cc1ccc(O)cc1)C(=O)N[C@@H](C)C(=O)N[C@@H](CO)C(=O)N[C@@H](CCCNC(=N)N)C(=O)NCC(=O)N[C@H](C(=O)N[C@@H](CCCNC(=N)N)C(=O)N1CCC[C@H]1C(=O)N[C@H](C(=O)NCC(=O)N[C@@H](CCCNC(=N)N)C(=O)N[C@@H](Cc1ccccc1)C(N)=O)C(C)C)[C@@H](C)CC)[C@@H](C)CC)[C@@H](C)O)C(=O)O [analog 1] (H-SRTHRHSMEIK([γGlu-Palmitoyl])TPDINPAWYASRGIRPVGRF-NH2; N-terminus assumed)
Change of group mean vs saline
  2-OG (2.45 ppm), Saline/analog1 %: 0.026%
  2-OG (3.01 ppm), Saline/analog1 %: -0.000867%
  2-PY (8.33 ppm), Saline/analog1 %: -0.107%
  3-indoxylsulfate (7.51 ppm), Saline/analog1 %: 0.024%
  3-indoxylsulfate (7.71 ppm), Saline/analog1 %: 0.023%
  4-PY (7.97 ppm), Saline/analog1 %: -0.088%
  4-PY (8.55 ppm), Saline/analog1 %: -0.153%
  DMA, Saline/analog1 %: 0.019%
  MNA-Nox (8.75 ppm), Saline/analog1 %: -0.117%
  N-carbamoylalanine (2.38 ppm), Saline/analog1 %: 0.020%
  N-carbamoylalanine (3.31 ppm), Saline/analog1 %: -0.071%
  N-isovalerylglycine + oxovalerate (0.92 ppm), Saline/analog1 %: 0.093%
  TMA, Saline/analog1 %: -0.084%
  acetate, Saline/analog1 %: 0.161%
  allantoin, Saline/analog1 %: 0.042%
  carnitine, Saline/analog1 %: 0.063%
  choline, Saline/analog1 %: 0.027%
  cis-aconitate, Saline/analog1 %: -0.010%
  citrate (2.55 ppm), Saline/analog1 %: -0.078%
  citrate (2.69 ppm), Saline/analog1 %: -0.081%
  creatine+creatinine, Saline/analog1 %: 0.078%
  creatine, Saline/analog1 %: -0.018%
  creatinine, Saline/analog1 %: 0.087%
  ethanolamine, Saline/analog1 %: -0.040%
  formate, Saline/analog1 %: 0.026%
  fumarate, Saline/analog1 %: -0.176%
  galactose, Saline/analog1 %: -0.073%
  glucose, Saline/analog1 %: -0.101%
  glycine, Saline/analog1 %: -0.064%
  hexanoylglycine + acids (0.88 ppm), Saline/analog1 %: 0.195%
  hippurate (7.55 ppm), Saline/analog1 %: -0.067%
  hippurate (7.64 ppm), Saline/analog1 %: -0.069%
  hippurate (7.84 ppm), Saline/analog1 %: -0.067%
  lactate, Saline/analog1 %: 0.188%
  multiplet acids (1.6 ppm), Saline/analog1 %: 0.198%
  putrescin, Saline/analog1 %: 0.025%
  succinate, Saline/analog1 %: 0.118%
  taurine (3.27 ppm), Saline/analog1 %: -0.289%
  taurine (3.43 ppm), Saline/analog1 %: -0.352%
  trigonelline (8.84 ppm), Saline/analog1 %: -0.128%
  trigonelline (9.13 ppm), Saline/analog1 %: -0.163%
  vinylacetylglycine, Saline/analog1 %: 0.197%
Group mean
  2-OG (2.45 ppm), Mean: 12.062
  2-OG (3.01 ppm), Mean: 10.231
  2-PY (8.33 ppm), Mean: 1.038
  3-indoxylsulfate (7.51 ppm), Mean: 1.334
  3-indoxylsulfate (7.71 ppm), Mean: 0.788
  4-PY (7.97 ppm), Mean: 1.650
  4-PY (8.55 ppm), Mean: 0.491
  DMA, Mean: 5.115
  DMG, Mean: 1.908
  MA, Mean: 2.952
  MNA (8.90 ppm), Mean: 0.369
  MNA (8.97 ppm), Mean: 0.353
  MNA (9.265 ppm), Mean: 0.370
  MNA-Nox (7.75 ppm), Mean: 0.962
  MNA-Nox (8.13 ppm), Mean: 0.690
  MNA-Nox (8.49 ppm), Mean: 0.452
  MNA-Nox (8.75 ppm), Mean: 0.431
  N-carbamoylalanine (2.38 ppm), Mean: 10.982
  N-carbamoylalanine (3.31 ppm), Mean: 8.810
  N-isovalerylglycine + oxovalerate (0.92 ppm), Mean: 15.843
  TMA, Mean: 11.127
  acetate, Mean: 4.363
  allantoin, Mean: 21.031
  carnitine, Mean: 6.328
  choline, Mean: 2.023
  cis-aconitate, Mean: 8.788
  citrate (2.55 ppm), Mean: 30.039
  citrate (2.69 ppm), Mean: 27.401
  creatine+creatinine, Mean: 24.594
  creatine, Mean: 6.851
  creatinine, Mean: 12.065
  ethanolamine, Mean: 7.631
  formate, Mean: 0.204
  fumarate, Mean: 0.145
  galactose, Mean: 0.718
  glucose, Mean: 3.260
  glycine, Mean: 5.697
  hexanoylglycine + acids (0.88 ppm), Mean: 15.760
  hippurate (7.55 ppm), Mean: 4.327
  hippurate (7.64 ppm), Mean: 2.207
  hippurate (7.84 ppm), Mean: 4.594
  lactate, Mean: 7.323
  multiplet acids (1.6 ppm), Mean: 12.799
  putrescin, Mean: 9.134
  succinate, Mean: 12.041
  taurine (3.27 ppm), Mean: 18.310
  taurine (3.43 ppm), Mean: 14.649
  trigonelline (8.84 ppm), Mean: 0.272
  trigonelline (9.13 ppm), Mean: 0.107
  vinylacetylglycine, Mean: 3.595
